From patent US9884048B2, “ERK inhibitors” (Merck Sharp & Dohme Corp., priority 2014, dated 2018) come the findings set out here.

For this test, the target named is phosphorylated active hERK2 enzyme (Homo sapiens (Human), UniProt P28482).
Where [1] appears, read: read-out: ERK2 IC50, IMAP-FP assay, 0.5 nM hERK2, 30 μM ATP, 10 point titration, 3 μM starting concentration.

Each structure is given as a SMILES string. Read-outs that look alike come from different tables or passages of the source.

Chain of phosphorylated active hERK2 enzyme (P28482 whole entry): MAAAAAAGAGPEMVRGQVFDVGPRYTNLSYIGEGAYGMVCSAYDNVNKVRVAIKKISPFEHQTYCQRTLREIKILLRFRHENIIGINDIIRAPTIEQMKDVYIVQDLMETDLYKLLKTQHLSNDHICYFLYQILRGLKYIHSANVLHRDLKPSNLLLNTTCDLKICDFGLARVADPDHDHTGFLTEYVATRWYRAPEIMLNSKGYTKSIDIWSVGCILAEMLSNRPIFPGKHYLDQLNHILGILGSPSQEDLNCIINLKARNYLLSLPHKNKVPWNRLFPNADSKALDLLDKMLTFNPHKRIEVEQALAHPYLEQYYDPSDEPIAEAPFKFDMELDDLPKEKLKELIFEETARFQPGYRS

A word on the IC50: it is the midpoint of a concentration-inhibition curve. Consider `Cc1cc(-n2ncc3cc(NC(=O)N[C@H]4CN(C)C[C@@H]4c4cccc(F)c4)ncc32)ccn1` [Example 19, 1-[(3R,4S)-4-(3-fluorophenyl)-1-methylpyrrolidin-3-yl]-3-[1-(2-methylpyridin-4-yl)-1H-pyrazolo[3,4-c]pyridin-5-yl)urea], for which it took 3.07 nM to reach half-maximal inhibition (IC50). As to `Cc1cc(-n2ncc3cc(NC(=O)N[C@@H]4CCN(C)C4)ncc32)ccn1` [Example 20, 1-[1-(2-methylpyridin-4-yl)-1H-pyrazolo[3,4-c]pyridin-5-yl]-3-[(3R)-1-methylpyrrolidin-3-yl)urea], the IC50 under setting [1] came to 50.5 nM. On the same count and under the same terms, then `Cc1cc(-n2ncc3cc(NC(=O)N[C@H]4CCN(C)C4)ncc32)ccn1` [Example 21, 1-[1-(2-methylpyridin-4-yl)-1H-pyrazolo[3,4-c]pyridin-5-yl]-3-[(3S)-1-methylpyrrolidin-3-yl)urea], with 767 nM; and `Cc1cc(-n2ncc3cc(NC(=O)NC4CC(=O)N(C)C4)ncc32)ccn1` (centres unmarked) [Example 22, 1-(1-methyl-5-oxopyrrolidin-3-yl)-3-[1-(2-methylpyridin-4-yl)-1H-pyrazolo[3,4-c]pyridin-5-yl)urea], with 181 nM. Still for that read-out and setting: the figure for `Cc1cc(-n2ncc3cc(NC(=O)NC4CCN(C)C4=O)ncc32)ccn1` (centres unmarked) [Example 23, 1-(1-methyl-2-oxopyrrolidin-3-yl)-3-[1-(2-methylpyridin-4-yl)-1H-pyrazolo[3,4-c]pyridin-5-yl)urea] is 314 nM.

With `Cc1cc(-n2ncc3cc(NC(=O)N[C@H]4CN(C)C[C@@H]4[C@@H]4CCCOC4)ncc32)ccn1` [Example 24, 1-[1-(2-methylpyridin-4-yl)-1H-pyrazolo[3,4-c]pyridin-5-yl]-3-{(3R,4S)-1-methyl-4-[(3S)-tetrahydro-2H-pyran-3-yl]pyrrolidin-3-yl}urea], the IC50 under setting [1] came to 140 nM. Same read-out and setting: the figure for `Cc1cc(-n2ncc3cc(NC(=O)N[C@H]4CN(C)C[C@@H]4C)ncc32)ccn1` [Example 25, 1-[(3R,4S)-1,4-dimethylpyrrolidin-3-yl]-3-[1-(2-methylpyridin-4-yl)-1H-pyrazolo[3,4-c]pyridin-5-yl]urea] is 66.4 nM; for `Cc1cc(-n2ncc3cc(NC(=O)N[C@@H]4C[C@H](C)N(C)C4)ncc32)ccn1` [Example 26, 1-[(3R,5S)-1,5-dimethylpyrrolidin-3-yl]-3-[1-(2-methylpyridin-4-yl)-1H-pyrazolo[3,4-c]pyridin-5-yl]urea] it is 275 nM; for `Cc1cc(-n2ncc3cc(NC(=O)NCC4CN(C(C)C(F)(F)F)C4)ncc32)ccn1` (centres unmarked) [Example 27, 1-[1-(2-methylpyridin-4-yl)-1H-pyrazolo[3,4-c]pyridin-5-yl]-3-{[1-(2,2,2-trifluoro-1-methylethyl)azetidin-3-yl]methyl}urea] it is 122 nM. Still for that read-out and setting: the figure for `CCN1CC[C@@H](NC(=O)Nc2cc3cnn(-c4ccnc(C)c4)c3cn2)C1` [Example 28, 1-[(3R)-1-ethylpyrrolidin-3-yl]-3-[1-(2-methylpyridin-4-yl)-1H-pyrazolo[3,4-c]pyridin-5-yl]urea] is 104 nM; for `CCCN1CC[C@@H](NC(=O)Nc2cc3cnn(-c4ccnc(C)c4)c3cn2)C1` [Example 29, 1-[1-(2-methylpyridin-4-yl)-1H-pyrazolo[3,4-c]pyridin-5-yl]-3-[(3R)-1-propylpyrrolidin-3-yl]urea] it is 453 nM; for `Cc1cc(-n2ncc3cc(NC(=O)N[C@H]4CN(C)C[C@@H]4C4CC4)ncc32)ccn1` [Example 30, 1-[(3R,4S)-4-cyclopropyl-1-methylpyrrolidin-3-yl]-3-[1-(2-methylpyridin-4-yl)-1H-pyrazolo[3,4-c]pyridin-5-yl]urea] it is 110 nM. For the compound `Cc1cc(-n2ncc3cc(NC(=O)N[C@H]4CN(C)C[C@@H]4C4CCCCC4)ncc32)ccn1` [Example 31, 1-[(3R,4S)-4-cyclohexyl-1-methylpyrrolidin-3-yl]-3-[1-(2-methylpyridin-4-yl)-1H-pyrazolo[3,4-c]pyridin-5-yl]urea], under setting [1], the IC50 was 35.1 nM. Same read-out and setting: the figure for `Cc1cc(-n2ncc3cc(NC(=O)NCc4cccc(NS(C)(=O)=O)c4)ncc32)ccn1` [Example 32, N-{3-[({[1-(2-methylpyridin-4-yl)-1H-pyrazolo[3,4-c]pyridin-5-yl]carbamoyl}amino)methyl]phenyl}methanesulfonamide] is 0.442 nM; for `COC[C@@H](NC(=O)Nc1cc2cnn(-c3ccnc(C)c3)c2cn1)c1ccc(F)cc1` [Example 33, 1-[(1S)-1-(4-fluorophenyl)-2-methoxyethyl]-3-[1-(2-methylpyridin-4-yl)-1H-pyrazolo[3,4-c]pyridin-5-yl]urea] it is 590 nM; for `Cc1cc(-n2ncc3cc(NC(=O)N[C@@H]4CCN(c5ccc(F)cc5)C4)ncc32)ccn1` [Example 34, 1-[(3R)-1-(4-fluorophenyl)pyrrolidin-3-yl]-3-[1-(2-methylpyridin-4-yl)-1H-pyrazolo[3,4-c]pyridin-5-yl]urea] it is 762 nM.

`Cn1cc2cc(-n3ncc4cc(NC(=O)NC(c5ccccc5)c5cnco5)ncc43)ccc2n1` (centres unmarked) [Example 35, 1-[1-(2-methyl-2H-indazol-5-yl)-1H-pyrazolo[3,4-c]pyridin-5-yl]-3-[1,3 oxazol-5-yl(phenyl)methyl]urea]: under setting [1], the IC50 came out at 1.56 nM. Still for that read-out and setting: the figure for `O=C(NCc1ccccc1)Nc1cc2cnn(-c3ccc(F)cc3)c2cn1` [Example 37, 1-benzyl-3-[1-(4-fluorophenyl)-1H-pyrazolo[3,4-c]pyridin-5-yl)urea] is 19.8 nM; for `O=C(Nc1cc2cnn(-c3ccncc3)c2cn1)N[C@@H](c1ccccc1)C(F)(F)F` [Example 38, 1-(1-pyridin-4-yl-1H-pyrazolo[3,4-c]pyridin-5-yl)-3-[(1S)-2,2,2-trifluoro-1-phenylethyl]urea] it is 19.4 nM. As to `O=C(NCc1cccnc1)Nc1cc2cnn(-c3ccncc3)c2cn1` [Example 39, 1-(pyridin-3-ylmethyl)-3-(1-pyridin-4-yl-1H-pyrazolo[3,4-c]pyridin-5-yl)urea], the IC50 under setting [1] stood at 171 nM. The same measure, in the same setting: then `O=C(NCCc1ccccc1F)Nc1cc2cnn(-c3ccncc3)c2cn1` [Example 40, 1-[2-(2-fluorophenyl)ethyl]-3-(1-pyridin-4-yl-1H-pyrazolo[3,4-c]pyridin-5-yl)urea], with 9.2 nM; and `O=C(NCc1cccc(Cl)c1)Nc1cc2cnn(-c3ccncc3)c2cn1` [Example 41, 1-(3-chlorobenzyl)-3-(1-pyridin-4-yl-1H-pyrazolo[3,4-c]pyridin-5-yl)urea], with 0.499 nM. Regarding `O=C(NCc1ccc(Cl)cc1)Nc1cc2cnn(-c3ccncc3)c2cn1` [Example 42, 1-(4-chlorobenzyl)-3-(1-pyridin-4-yl-1H-pyrazolo[3,4-c]pyridin-5-yl)urea], the 50% inhibitory concentration (IC50) under setting [1] is 8.03 nM. For `Cc1cc(-n2ncc3cc(NC(=O)N[C@H](C)c4cccc(Cl)c4)ncc32)ccn1` [Example 43, 1-[(1R)-1-(3-chlorophenyl)ethyl]-3-[1-(2-methylpyridin-4-yl)-1H-pyrazolo[3,4-c]pyridin-5-yl]urea], the IC50 under setting [1] stood at 0.952 nM.

With `Cc1cc(-n2ncc3cc(NC(=O)N[C@H](C)c4ccccc4Cl)ncc32)ccn1` [Example 44, 1-[(1R)-1-(2-chlorophenyl)ethyl]-3-[1-(2-methylpyridin-4-yl)-1H-pyrazolo[3,4-c]pyridin-5-yl]urea], the IC50 under setting [1] was determined as 15.6 nM. The same measure, in the same setting: then `Cc1cc(-n2ncc3cc(NC(=O)NC(C)c4ccc(-n5cncn5)cc4)ncc32)ccn1` (centres unmarked) [Example 45, 1-[1-(2-methylpyridin-4-yl)-1H-pyrazolo[3,4-c]pyridin-5-yl]-3-{1-[4-(1H-1,2,4-triazol-1-yl)phenyl]ethyl}urea], with 166 nM.

Consider `Cc1cc(-n2ncc3cc(NC(=O)NC4CC(C)(C)Oc5ccccc54)ncc32)ccn1` (centres unmarked) [Example 46, 1-(2,2-dimethyl-3,4-dihydro-2H-chromen-4-yl)-3-[1-(2-methylpyridin-4-yl)-1H-pyrazolo[3,4-c]pyridin-5-yl]urea], for which the IC50 under setting [1] came out at 174 nM. The same measure, in the same setting: then `Cc1cc(-n2ncc3cc(NC(=O)NC(C)c4ccc(OC(F)(F)F)cc4)ncc32)ccn1` (centres unmarked) [Example 47], with 40.3 nM.

Consider `Cc1cc(-n2ncc3cc(NC(=O)NC(C)c4cccc(OC(F)(F)F)c4)ncc32)ccn1` (centres unmarked) [Example 48, 1-[1-(2-methylpyridin-4-yl)-1H-pyrazolo[3,4-c]pyridin-5-yl]-3-{1-[3-(trifluoromethoxy)phenyl]ethyl}urea], for which the IC50 under setting [1] was found to be 10.7 nM. Still for that read-out and setting: the figure for `Cc1cc(-n2ncc3cc(NC(=O)NCC(CO)c4ccccc4)ncc32)ccn1` (centres unmarked) [Example 49, 1-(3-hydroxy-2-phenylpropyl)-3-[1-(2-methylpyridin-4-yl)-1H-pyrazolo[3,4-c]pyridin-5-yl]urea] is 7.66 nM; for `Cc1cc(-n2ncc3cc(NC(=O)NCC(c4ccccc4)N4CCCCC4)ncc32)ccn1` (centres unmarked) [Example 50, 1-[1-(2-methylpyridin-4-yl)-1H-pyrazolo[3,4-c]pyridin-5-yl]-3-(2-phenyl-2-piperidin-1-ylethyl)urea] it is 198 nM; for `Cc1cc(-n2ncc3cc(NC(=O)NC(CCN(C)C)c4ccccc4)ncc32)ccn1` (centres unmarked) [Example 51, 1-[3-(dimethylamino)-1-phenylpropyl]-3-[1-(2-methylpyridin-4-yl)-1H-pyrazolo[3,4-c]pyridin-5-yl)urea] it is 2.7 nM. Same read-out and setting: the figure for `Cc1cc(-n2ncc3cc(NC(=O)NCC4(c5ccccc5)CCOCC4)ncc32)ccn1` [Example 52, 1-[1-(2-methylpyridin-4-yl)-1H-pyrazolo[3,4-c]pyridin-5-yl]-3-[(4-phenyltetrahydro-2H-pyran-4-yl)methyl]urea] is 7.09 nM; for `Cc1cc(-n2ncc3cc(NC(=O)NC(CCN4CCCCC4)c4ccccc4)ncc32)ccn1` (centres unmarked) [Example 53, 1-[1-(2-methylpyridin-4-yl)-1H-pyrazolo[3,4-c]pyridin-5-yl]-3-(1-phenyl-3-piperidin-1-ylpropyl)urea] it is 49.2 nM; for `Cc1cc(-n2ncc3cc(NC(=O)NCC(c4ccc(F)cc4)N4CCCCC4)ncc32)ccn1` (centres unmarked) [Example 54, 1-[2-(4-fluorophenyl)-2-piperidin-1-ylethyl]-3-[1-(2-methylpyridin-4-yl)-1H-pyrazolo[3,4-c]pyridin-5-yl)urea] it is 195 nM.
